Assays:
[1] = target: T1, human CB2 receptor (Homo sapiens, UniProt P34972); assay: Human CB2 receptor binding inhibition test ([3H]CP-55,940, CHO membrane fractions); conditions: [3H]CP-55,940, membrane fractions of CHO cells stably expressing human CB2 receptor, 25° C., 2 hours; read-out: CB2 IC50 (Inhibition of binding to human CB2 receptor)
T1 construct: expressed in transfected cells
Excerpt: Human CB2 Receptor Binding Inhibition Test
First, cDNA sequence (Munro et al., Nature, 1993, 365, 61-65) encoding a human CB2 receptor was inserted in the forward direction in an animal-cell expression vector, pTARGET Vector (manufactured by Promega) at a region downstream of a CMV promoter. Host cells CHO-DHFR(−) were transfected with the obtained expression vector with the aid of Lipofectamine (manufactured by Invitrogen) to obtain cells capable of stably expressing the CB2 receptor.
After the filtrate was washed with an assay buffer containing 0.1% bovine serum albumin, the radioactivity on the glass filter was measured by a liquid scintillation counter. Nonspecific binding was measured in the presence of 2.0 μM CP-55,940 (manufactured by Tocris). 50% inhibitory concentration (IC50 value) of the test compound for the specific binding was obtained.

T1 sequence (P34972 whole entry): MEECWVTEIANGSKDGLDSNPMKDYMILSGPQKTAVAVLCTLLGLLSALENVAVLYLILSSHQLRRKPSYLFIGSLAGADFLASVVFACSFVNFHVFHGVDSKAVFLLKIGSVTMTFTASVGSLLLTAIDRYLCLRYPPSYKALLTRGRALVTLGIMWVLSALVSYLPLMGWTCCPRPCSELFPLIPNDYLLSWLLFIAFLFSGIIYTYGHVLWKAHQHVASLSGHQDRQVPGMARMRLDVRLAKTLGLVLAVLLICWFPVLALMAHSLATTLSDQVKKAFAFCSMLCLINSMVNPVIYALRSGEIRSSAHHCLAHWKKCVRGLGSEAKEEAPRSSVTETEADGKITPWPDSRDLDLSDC

Structure (SMILES): Cc1c(C(C)(C)C)s/c(=N\C(=O)c2cccc(OC(F)(F)C(F)F)c2)n1CC1CC1 [compound 198]
- IC50 [1]: 2.7 nM
- melting point: 109 to 111 °C

Structure (SMILES): CNc1ccccc1C(=O)/N=c1\sc(C(C)(C)C)c(C)n1CC1CC1 [compound 200]
- IC50 [1]: 15.1 nM
- melting point: 158 to 159 °C

Structure (SMILES): Cc1c(C(C)(C)C)s/c(=N\C(=O)c2cccc(N(C)C)c2)n1CC1CC1 [compound 201]
- IC50 [1]: 19.1 nM
- melting point: 128 to 130 °C

Structure (SMILES): Cc1c(C(C)(C)C)s/c(=N\C(=O)c2cccc([N+](=O)[O-])c2)n1CC1CC1 [compound 209]
- IC50 [1]: 1.4 nM
- melting point: 87 to 89 °C

Structure (SMILES): Cc1c(C(C)(C)C)s/c(=N\C(=O)c2ccc(C#N)cc2)n1CC1CC1 [compound 210]
- IC50 [1]: 15.7 nM
- melting point: 125 to 126 °C

Structure (SMILES): Cc1ccc(C(=O)/N=c2\sc(C(C)(C)C)c(C)n2CC2CC2)c(C)c1 [compound 216]
- IC50 [1]: 1.7 nM
- melting point: 100 to 101 °C

Structure (SMILES): Cc1ccc(C)c(C(=O)/N=c2\sc(C(C)(C)C)c(C)n2CC2CC2)c1 [compound 217]
- IC50 [1]: 2.6 nM
- melting point: 106 to 107 °C

Structure (SMILES): Cc1cccc(C)c1C(=O)/N=c1\sc(C(C)(C)C)c(C)n1CC1CC1 [compound 218]
- IC50 [1]: 5.7 nM
- melting point: 98 to 100 °C

Structure (SMILES): Cc1c(C(C)(C)C)s/c(=N\C(=O)c2cc(C(F)(F)F)ccc2C(F)(F)F)n1CC1CC1 [compound 220]
- IC50 [1]: 3.9 nM
- melting point: 159 to 161 °C

Structure (SMILES): Cc1c(C(C)(C)C)s/c(=N\C(=O)c2cc(F)ccc2F)n1CC1CC1 [compound 221]
- IC50 [1]: 15.6 nM
- melting point: 170 to 172 °C

Structure (SMILES): Cc1c(C(C)(C)C)s/c(=N\C(=O)c2ccc(F)cc2F)n1CC1CC1 [compound 224]
- IC50 [1]: 13 nM
- melting point: 111 to 112 °C

Structure (SMILES): Cc1c(C(C)(C)C)s/c(=N\C(=O)c2ccc(Cl)cc2F)n1CC1CC1 [compound 226]
- IC50 [1]: 7.7 nM
- melting point: 108 to 110 °C

Structure (SMILES): Cc1c(C(C)(C)C)s/c(=N\C(=O)c2ccc(Br)cc2F)n1CC1CC1 [compound 227]
- IC50 [1]: 8.2 nM
- melting point: 121 to 131 °C

Structure (SMILES): Cc1c(C(C)(C)C)s/c(=N\C(=O)c2cc(Br)ccc2F)n1CC1CC1 [compound 230]
- IC50 [1]: 1.5 nM
- melting point: 113 to 114 °C

Structure (SMILES): Cc1c(C(C)(C)C)s/c(=N\C(=O)c2cc(I)ccc2F)n1CC1CC1 [compound 231]
- IC50 [1]: 3 nM
- melting point: 95 to 96 °C

Structure (SMILES): COc1ccc(OC)c(C(=O)/N=c2\sc(C(C)(C)C)c(C)n2CC2CC2)c1 [compound 234]
- IC50 [1]: 0.7 nM
- melting point: 83 to 85 °C

Structure (SMILES): CCOc1ccc(OCC)c(C(=O)/N=c2\sc(C(C)(C)C)c(C)n2CC2CC2)c1 [compound 238]
- IC50 [1]: 4.4 nM
- melting point: 97 to 99 °C

Structure (SMILES): Cc1ccc(F)c(C(=O)/N=c2\sc(C(C)(C)C)c(C)n2CC2CC2)c1 [compound 239]
- IC50 [1]: 2.4 nM
- melting point: 117 to 119 °C

Structure (SMILES): Cc1ccc(F)cc1C(=O)/N=c1\sc(C(C)(C)C)c(C)n1CC1CC1 [compound 241]
- IC50 [1]: 1 nM
- melting point: 91 to 93 °C

Structure (SMILES): Cc1cc(Cl)ccc1C(=O)/N=c1\sc(C(C)(C)C)c(C)n1CC1CC1 [compound 242]
- IC50 [1]: 4 nM
- melting point: 108 to 109 °C

Structure (SMILES): Cc1cccc(Cl)c1C(=O)/N=c1\sc(C(C)(C)C)c(C)n1CC1CC1 [compound 244]
- IC50 [1]: 3.2 nM
- melting point: 159 to 160 °C

Structure (SMILES): Cc1cccc(Br)c1C(=O)/N=c1\oc(C(C)(C)C)c(C)n1CC1CC1 [compound 248]
- IC50 [1]: 5.6 nM
- melting point: 89 to 90 °C

Structure (SMILES): Cc1c(C(C)(C)C)s/c(=N\C(=O)c2cc(C(F)(F)F)ccc2F)n1CC1CC1 [compound 251]
- IC50 [1]: 3.4 nM
- melting point: 113 to 115 °C

Structure (SMILES): Cc1c(C(C)(C)C)s/c(=N\C(=O)c2cc(F)ccc2C(F)(F)F)n1CC1CC1 [compound 254]
- IC50 [1]: 1.4 nM
- melting point: 110 to 112 °C

Structure (SMILES): Cc1c(C(C)(C)C)s/c(=N\C(=O)c2cc(C(F)(F)F)ccc2Cl)n1CC1CC1 [compound 257]
- IC50 [1]: 1.3 nM
- melting point: 100 to 102 °C

Structure (SMILES): Cc1c(C(C)(C)C)s/c(=N\C(=O)c2cc(Br)ccc2OC(F)F)n1CC1CC1 [compound 266]
- IC50 [1]: 0.8 nM
- melting point: 169 to 170 °C

Structure (SMILES): CCOc1ccc(C(F)(F)F)cc1C(=O)/N=c1\sc(C(C)(C)C)c(C)n1CC1CC1 [compound 268]
- IC50 [1]: 1.1 nM
- melting point: 140 to 142 °C

Structure (SMILES): Cc1c(C(C)(C)C)s/c(=N\C(=O)c2cc(C(F)(F)F)ccc2OC(C)C)n1CC1CC1 [compound 269]
- IC50 [1]: 3.6 nM
- melting point: 106 to 108 °C

Structure (SMILES): COCCOc1ccc(C(F)(F)F)cc1C(=O)/N=c1\sc(C(C)(C)C)c(C)n1CC1CC1 [compound 270]
- IC50 [1]: 0.7 nM
- melting point: 108 to 110 °C

Structure (SMILES): Cc1c(C(C)(C)C)s/c(=N\C(=O)C2=C(NCCO)C=CC(C(F)(F)F)C2)n1CC1CC1 (stereo not shown) [compound 272]
- IC50 [1]: 5 nM
- melting point: 131 to 133 °C

Structure (SMILES): CCN(C)c1ccc(C(F)(F)F)cc1C(=O)/N=c1\sc(C(C)(C)C)c(C)n1CC1CC1 [compound 274]
- IC50 [1]: 13.2 nM
- melting point: 101 to 103 °C

Structure (SMILES): Cc1c(C(C)(C)C)s/c(=N\C(=O)c2cc(C(F)(F)F)ccc2N(C)C)n1CC1CC1 [compound 277]
- IC50 [1]: 9 nM
- melting point: 126 to 128 °C

Structure (SMILES): Cc1c(C(C)(C)C)s/c(=N\C(=O)c2ccc(F)c(F)c2F)n1CC1CC1 [compound 282]
- IC50 [1]: 14.5 nM
- melting point: 82 to 84 °C

Structure (SMILES): Cc1c(C(C)(C)C)s/c(=N\C(=O)c2cc(F)c(F)cc2F)n1CC1CC1 [compound 283]
- IC50 [1]: 5.9 nM
- melting point: 78 to 79 °C

Structure (SMILES): Cc1c(C(C)(C)C)s/c(=N\C(=O)c2cc(F)c(F)cc2Cl)n1CC1CC1 [compound 284]
- IC50 [1]: 1.2 nM
- melting point: 112 to 114 °C

Structure (SMILES): Cc1c(C(C)(C)C)s/c(=N\C(=O)c2ccc(F)c(Cl)c2F)n1CC1CC1 [compound 285]
- IC50 [1]: 14.2 nM
- melting point: 76 to 77 °C

Structure (SMILES): Cc1ccc(C(=O)/N=c2\sc(C(C)(C)C)c(C)n2CC2CC2)c(F)c1F [compound 287]
- IC50 [1]: 13.5 nM
- melting point: 122 to 124 °C

Structure (SMILES): Cc1cccnc1C(=O)/N=c1\sc(C(C)(C)C)c(C)n1CC1CC1 [compound 293]
- IC50 [1]: 7 nM
- melting point: 88 to 89 °C

Structure (SMILES): Cc1c(C(C)(C)C)s/c(=N/C(=O)c2cnccc2C(F)(F)F)n1CC1CC1 [compound 298]
- IC50 [1]: 1.5 nM
- melting point: 74 to 76 °C

Structure (SMILES): Cc1c(C(C)(C)C)s/c(=N/C(=O)c2cccnc2F)n1CC1CC1 [compound 300]
- IC50 [1]: 15 nM
- melting point: 83 to 84 °C

Structure (SMILES): Cc1c(C(C)(C)C)s/c(=N\C(=O)c2nccnc2Cl)n1CC1CC1 [compound 305]
- IC50 [1]: 3.7 nM
- melting point: 115 to 116 °C

Structure (SMILES): Cc1c(C(C)(C)C)s/c(=N\C(=O)c2cc(Cl)ncc2Cl)n1CC1CC1 [compound 307]
- IC50 [1]: 1 nM
- melting point: 110 to 112 °C

Structure (SMILES): CCOc1ncccc1C(=O)/N=c1\sc(C(C)(C)C)c(C)n1CC1CC1 [compound 310]
- IC50 [1]: 17.3 nM
- melting point: 102 to 104 °C

Structure (SMILES): CSc1ncccc1C(=O)/N=c1\sc(C(C)(C)C)c(C)n1CC1CC1 [compound 312]
- IC50 [1]: 14 nM
- melting point: 138 to 139 °C

Structure (SMILES): Cc1nc(F)ccc1C(=O)/N=c1\sc(C(C)(C)C)c(C)n1CC1CC1 [compound 316]
- IC50 [1]: 5.3 nM
- melting point: 67 to 69 °C

Structure (SMILES): Cc1c(C(C)(C)C)s/c(=N\C(=O)c2ccc([N+](=O)[O-])o2)n1CC1CC1 [compound 319]
- IC50 [1]: 18.6 nM
- melting point: 129 to 130 °C

Structure (SMILES): Cc1c(C(C)(C)C)s/c(=N\C(=O)c2ccc3nonc3c2)n1CC1CC1 [compound 320]
- IC50 [1]: 6.2 nM
- melting point: 139 to 141 °C

Structure (SMILES): Cc1c(C(C)(C)C)s/c(=N\C(=O)c2cccc3cnccc23)n1CC1CC1 [compound 321]
- IC50 [1]: 2.3 nM
- melting point: 109 to 110 °C

Structure (SMILES): Cc1c(C(C)(C)C)s/c(=N\C(=O)c2cccc3cccnc23)n1CC1CC1 [compound 322]
- IC50 [1]: 5.6 nM
- melting point: 193 to 195 °C

Structure (SMILES): Cc1c(C(C)(C)C)s/c(=N\C(=O)c2cnnc3ccccc23)n1CC1CC1 [compound 325]
- IC50 [1]: 13 nM
- melting point: 140 to 141 °C

Structure (SMILES): Cc1c(C(C)(C)C)s/c(=N\C(=O)c2cc3sccc3nc2C(F)(F)F)n1CC1CC1 [compound 328]
- IC50 [1]: 11.8 nM
- melting point: 147 to 149 °C

Structure (SMILES): Cc1c(C(C)(C)C)s/c(=N\C(=O)C(C)(C)C)n1CC1CC1 [compound 330]
- IC50 [1]: 13.8 nM
- melting point: 102 to 104 °C

Structure (SMILES): Cc1c(C(C)(C)C)s/c(=N\C(=O)CCC(F)(F)F)n1CC1CC1 [compound 335]
- IC50 [1]: 5.5 nM
- melting point: 102 to 103 °C

Structure (SMILES): Cc1c(C(C)(C)C)s/c(=N\C(=O)C(F)(F)C(F)(F)C(F)(F)F)n1CC1CC1 [compound 336]
- IC50 [1]: 2.9 nM
- melting point: 147 to 148 °C

Structure (SMILES): COCCn1c(C)c(C(C)(C)C)s/c1=N\C(=O)C(F)(F)C(F)(F)C(F)(F)F [compound 338]
- IC50 [1]: 9.1 nM
- melting point: 69 to 71 °C

Structure (SMILES): CC(=O)OC(C(=O)/N=c1\sc(C(C)(C)C)c(C)n1CC1CC1)c1ccccc1 (stereo not shown) [compound 341]
- IC50 [1]: 5.3 nM
- melting point: 147 to 148 °C

Structure (SMILES): COCCn1c(C)c(C(C)(C)C)s/c1=N\C(=O)c1cccc(C(F)(F)F)c1 [compound 344]
- IC50 [1]: 12.2 nM
- melting point: 172 to 173 °C

Structure (SMILES): COCCn1c(C)c(C(C)(C)C)s/c1=N\C(=O)c1cccc(Br)c1 [compound 345]
- IC50 [1]: 12.7 nM
- melting point: 89 to 91 °C

Structure (SMILES): COCCn1c(C)c(C(C)(C)C)s/c1=N\C(=O)c1cccc(I)c1 [compound 346]
- IC50 [1]: 13.5 nM
- melting point: 119 to 121 °C
